Values of other authors in article PMC11597202, “Novel Thiazole-Fused [4,5-g] or [5,4-g]Quinazolin-8-ones and Their Quinazoline Analogues: Synthesis and Biological Evaluation” (Pharmaceuticals, 2024).

Test system: DYRK1A
Details: in Figure 3; cited from earlier work

Structure (SMILES)	IC50 [nM]
COC(=N)c1nc2ccc3ncn(Cc4ccccc4)c(=O)c3c2s1 [Compound I, methyl 8-benzyl-9-oxo-8,9-dihydrothiazolo[5,4-f]quinazoline-2-carbimidate, reference compound]	300
COC(=N)c1nc2ccc3ncnc(Nc4ccc(OC)cc4F)c3c2s1 [Compound II, methyl 9-[(2-fluoro-4-methoxyphenyl)amino]thiazolo[5,4-f]quinazoline-2-carbimidate, reference compound]	0.36
